Source: patent US20070264340A1, “Aromachemicals” (Flexitral, Inc., priority 2006, published 2007)

Assay: stability to acid
Assay type: physicochemical

stability to acid: stable to acid
Structure (SMILES): CC(C)=CCCC1(C)CC1C=O (racemic) [2-methyl-2-(4-methylpent-3-en-1-yl)cyclopropanecarbaldehyde]
